# In paper PMC10892984, “Novel Antineoplastic Inducers of Mitochondrial Apoptosis in Human Cancer Cells” (Molecules, 2024):
# Tests used:
# [1] = tested on: NCI/ADR-RES
# [2] = tested on: BT-549
# [3] = tested on: SNB-19
# [4] = tested on: NCI-H226
# [5] = tested on: PC-3
# [6] = tested on: A549
# [7] = tested on: A498
# [8] = tested on: UO-31
# [9] = tested on: SK-OV-3
# [10] = tested on: SK-MEL-28
# [11] = tested on: HS 578T; details: 48 h
# [12] = tested on: ACHN
# [13] = tested on: NCI-H460
# [14] = tested on: OVCAR-3
# [15] = tested on: SW-620
# [16] = tested on: HCC-2998
# [17] = tested on: HCT-116
# [18] = tested on: MDA-MB-231
# [19] = tested on: SF-539
# [20] = tested on: SK-MEL-5
# [21] = tested on: KM-12
# [22] = tested on: RXF 393
# [23] = tested on: OVCAR-4
# [24] = tested on: M14
# [25] = tested on: OVCAR-5
# [26] = tested on: 60 human cancer cell lines
# Description: The defined tumor inhibition criterion (GI50, TGI, or LC50) is recalculated in log10 expression, and the colored bars, which indicate then the sensitivity of the individual tumor cell line to the agent, are given in log10 units. […] The most important feature is at the bottom of the page: the MID (Mean of Inhibition Data) indicates the mean concentration for all tested cell lines required for the drug to reach the defined tumor inhibition criterion (GI50, TGI, or LC50). It is given in Log10GI50, Log10TGI, and Log10LC50. From those values, the corresponding MID is calculated. […] The MID can be transformed from logarithmic into linear concentrations by the formula: c = 10^MID.
# The human tumor cell lines of the cancer screening panel are grown in RPMI-1640 medium containing 5% fetal bovine serum (FBS) and 2 mM L-glutamine. For a typical screening experiment, cells are inoculated into 96-well microtiter plates in 100 μL at plating densities ranging from 5000 to 40,000 cells/well, depending on the doubling time of individual cell lines. After cell inoculation, the microtiter plates are incubated at 37 °C, 5% CO2, 95% air, and 100% relative humidity for 24 h prior to the addition of experimental drugs. After 24 h, two plates of each cell line are fixed in situ with trichloroacetic acid (TCA) to represent a measurement of the cell population for each cell line at the time of drug addition (Tz). Experimental drugs are solubilized in dimethyl sulfoxide (DMSO) at 400-fold the desired final maximum test concentration and stored frozen prior to use. At the time of drug addition, an aliquot of frozen concentrate is thawed and diluted to twice the desired final maximum test concentration with a complete medium containing 50 μg/mL gentamicin. Additional four, 10-fold or ½ log serial dilutions are made to provide a total of five drug concentrations plus control. Aliquots of 100 μL of these different drug dilutions are added to the appropriate microtiter wells already containing 100 μL of the medium, resulting in the required final drug concentrations.
# Following drug addition, the plates are incubated for an additional 48 h at 37 °C, 5% CO2, 95% air, and 100% relative humidity. For adherent cells, the assay is terminated by the addition of cold TCA. Cells are fixed in situ by the gentle addition of 50 μL of cold 50% (m/v) TCA (final concentration, 10% TCA) and incubated for 60 min at 4 °C. The supernatant is discarded, and the plates are washed five times with tap water and air dried. Sulforhodamine B (SRB) solution [100 μL at 0.4% (m/v) in 1% acetic acid] is added to each well, and plates are incubated for 10 min at room temperature. After staining, unbound dye is removed by washing five times with 1% acetic acid, and the plates are air dried. Bound stain is subsequently solubilized with 10 mM trizma® base [2-amino-2-(hydroxymethyl)-1,3-propandiol, tris base, trometamol], and the absorbance is read on an automated plate reader at a wavelength of λ = 515 nm. For suspension cells, the methodology is the same, except that the assay is terminated by fixing settled cells at the bottom of the wells by gently adding 50 μL of 80% TCA (final concentration, 16% TCA). Using the seven absorbance measurements [time zero, (Tz), control growth, (C), and test growth in the presence of the drug at the five concentration levels (Ti)], the percentage growth is calculated at each of the drug concentration levels. Percentage growth inhibition is calculated as:[(Ti − Tz)/(C − Tz)] × 100 for concentrations for which Ti ≥ Tz [(Ti − Tz)/Tz] × 100 for concentrations for which Ti < Tz
# Three dose-response parameters are calculated for each experimental agent.
# [27] = tested on: COLO 205
# [28] = Homo sapiens, 48 h, read-out: LC50
smiles,measurement,setting,value
"c1cc(CNC23CC4CC(CC(C4)C2)C3)cc(C[N+](Cc2cccc(CNC34CC5CC(CC(C5)C3)C4)c2)(Cc2cccc(CNC34CC5CC(CC(C5)C3)C4)c2)Cc2cccc(CNC34CC5CC(CC(C5)C3)C4)c2)c1 (stereo not shown) [Compound 1, tetrakis{3-[(tricyclo[3.3.1.1^3,7]decan-1-ammonio)methyl]benzyl}ammonium pentachloride]",GI50,"[1]; Homo sapiens, 48 h",1440 nM
same,CC50,[1]; [28],> 50 µM
same,TGI,"[1]; ovarian cancer, mutant p53, 48 h",4.55 µM
same,TGI,"[2]; BT-549, breast cancer, mutant p53, 48 h",2.77 µM
same,GI50,"[2]; Homo sapiens, BT-549, 48 h",1020 nM
same,CC50,"[2]; Homo sapiens, BT-549, 48 h, read-out: LC50",10.2 µM
same,GI50,"[3]; Homo sapiens, SNB-19, 48 h",1920 nM
same,CC50,"[3]; Homo sapiens, SNB-19, 48 h, read-out: LC50",19.9 µM
same,TGI,"[3]; SNB-19, CNS cancer (brain tumor), mutant p53, 48 h",7.27 µM
same,GI50,"[4]; Homo sapiens, NCI-H226, 48 h",2760 nM
same,CC50,"[4]; Homo sapiens, NCI-H226, 48 h, read-out: LC50",31.2 µM
same,TGI,"[4]; NCI-H226, non-small-cell lung cancer, p53 Lit. inconclusive, 48 h",10.8 µM
same,GI50,"[5]; Homo sapiens, PC-3, 48 h",1400 nM
same,CC50,"[5]; Homo sapiens, PC-3, 48 h, read-out: LC50",21.4 µM
same,TGI,"[5]; PC-3, prostate cancer, mutant p53 (null p53 protein), 48 h",5.17 µM
same,TGI,"[6]; A549, non-small-cell lung cancer, wild-type p53, 48 h",8.70 µM
same,GI50,"[6]; Homo sapiens, A549, 48 h",2130 nM
same,CC50,"[6]; Homo sapiens, A549, 48 h, read-out: LC50",24.2 µM
same,TGI,"[7]; A498, renal cancer, wild-type p53, 48 h",7.05 µM
same,GI50,"[7]; Homo sapiens, A498, 48 h",1190 nM
same,CC50,"[7]; Homo sapiens, A498, 48 h, read-out: LC50",21.2 µM
same,GI50,"[8]; Homo sapiens, UO-31, 48 h",817 nM
same,CC50,"[8]; Homo sapiens, UO-31, 48 h, read-out: LC50",4.73 µM
same,TGI,"[8]; UO-31, renal cancer, wild-type p53, 48 h",1.96 µM
same,GI50,"[9]; Homo sapiens, SK-OV-3, 48 h",5.11 µM
same,CC50,"[9]; Homo sapiens, SK-OV-3, 48 h, read-out: LC50",25.5 µM
same,TGI,"[9]; SK-OV-3, ovarian cancer, no p53 protein expressed, 48 h",11.4 µM
same,GI50,"[10]; Homo sapiens, SK-MEL-28, 48 h",1660 nM
same,CC50,"[10]; Homo sapiens, SK-MEL-28, 48 h, read-out: LC50",21.9 µM
same,TGI,"[10]; SK-MEL-28, melanoma, mutant p53, 48 h",7.91 µM
same,TGI,"[11]; HS 578T, breast cancer, mutant p53",11.8 µM
same,GI50,"[11]; Homo sapiens, Hs-578T",1920 nM
same,CC50,"[11]; Homo sapiens, Hs-578T, read-out: LC50",> 50 µM
same,GI50,"[12]; Homo sapiens, 48 h",874 nM
same,CC50,[12]; [28],5.55 µM
same,TGI,"[12]; renal cancer, wild-type p53, 48 h",2.14 µM
same,GI50,"[13]; Homo sapiens, NCI-H460, 48 h",1190 nM
same,CC50,"[13]; Homo sapiens, NCI-H460, 48 h, read-out: LC50",17.9 µM
same,TGI,"[13]; NCI-H460, non-small-cell lung cancer, wild-type p53, 48 h",2.71 µM
same,GI50,"[14]; Homo sapiens, OVCAR-3, 48 h",1040 nM
same,CC50,"[14]; Homo sapiens, OVCAR-3, 48 h, read-out: LC50",9.97 µM
same,TGI,"[14]; OVCAR-3, ovarian cancer, mutant p53, 48 h",2.82 µM
same,GI50,"[15]; Homo sapiens, SW-620, 48 h",1250 nM
same,CC50,"[15]; Homo sapiens, SW-620, 48 h, read-out: LC50",17.2 µM
same,TGI,"[15]; SW-620, colon cancer, mutant p53, 48 h",3.95 µM
same,TGI,"[16]; HCC-2998, colon cancer, mutant p53, 48 h",5.31 µM
same,GI50,"[16]; Homo sapiens, HCC 2998, 48 h",1220 nM
same,CC50,"[16]; Homo sapiens, HCC 2998, 48 h, read-out: LC50",22.6 µM
same,TGI,"[17]; HCT-116, colon cancer, wild-type p53, 48 h",2.01 µM
same,GI50,"[17]; Homo sapiens, HCT-116, 48 h",728 nM
same,CC50,"[17]; Homo sapiens, HCT-116, 48 h, read-out: LC50",6.47 µM
same,GI50,"[18]; Homo sapiens, MDA-MB-231, 48 h",2090 nM
same,CC50,"[18]; Homo sapiens, MDA-MB-231, 48 h, read-out: LC50",22.7 µM
same,TGI,"[18]; MDA-MB-231, breast cancer, mutant p53, 48 h",7.41 µM
same,GI50,"[19]; Homo sapiens, SF-539, 48 h",1010 nM
same,CC50,"[19]; Homo sapiens, SF-539, 48 h, read-out: LC50",7.59 µM
same,TGI,"[19]; SF-539, CNS cancer (brain tumor), mutant p53, 48 h",2.48 µM
same,GI50,"[20]; Homo sapiens, SK-MEL-5, 48 h",1520 nM
same,CC50,"[20]; Homo sapiens, SK-MEL-5, 48 h, read-out: LC50",18.6 µM
same,TGI,"[20]; SK-MEL-5, melanoma, wild-type p53, 48 h",6.28 µM
same,GI50,"[21]; Homo sapiens, KM12, 48 h",1650 nM
same,CC50,"[21]; Homo sapiens, KM12, 48 h, read-out: LC50",20.6 µM
same,TGI,"[21]; KM-12, colon cancer, mutant p53, 48 h",6.75 µM
same,GI50,"[22]; Homo sapiens, RXF 393, 48 h",811 nM
same,CC50,"[22]; Homo sapiens, RXF 393, 48 h, read-out: LC50",3.02 µM
same,TGI,"[22]; RXF 393, renal cancer, mutant p53, 48 h",1.56 µM
same,GI50,"[23]; Homo sapiens, OVCAR-4, 48 h",1160 nM
same,CC50,"[23]; Homo sapiens, OVCAR-4, 48 h, read-out: LC50",18.4 µM
same,TGI,"[23]; OVCAR-4, ovarian cancer, mutant p53, 48 h",5.45 µM
same,GI50,"[24]; Homo sapiens, M14, 48 h",803 nM
same,CC50,"[24]; Homo sapiens, M14, 48 h, read-out: LC50",6.82 µM
same,TGI,"[24]; M14, melanoma, mutant p53, 48 h",2.08 µM
same,GI50,"[25]; Homo sapiens, OVCAR-5, 48 h",977 nM
same,CC50,"[25]; Homo sapiens, OVCAR-5, 48 h, read-out: LC50",10.8 µM
same,TGI,"[25]; OVCAR-5, ovarian cancer, p53 Lit. inconclusive, 48 h",2.76 µM
same,GI50,"[26]; Homo sapiens, read-out: Mean of Inhibition Data (MID) GI50, 10^MID",1290 nM
same,CC50,"[26]; Homo sapiens, read-out: Mean of Inhibition Data (MID) LC50, 10^MID",16.6 µM
same,induction of cancer cell death (classification),[26]; NCI 60 panel overall,tumoricidal
same,"Mean of Inhibition Data (MID) TGI, 10^MID",[26]; mean over all tested cell lines of the NCI 60 panel,4.677 µM
same,TGI,"[27]; COLO 205, colon cancer, mutant p53, 48 h",3.13 µM
same,GI50,"[27]; Homo sapiens, COLO 205, 48 h",1090 nM
same,CC50,"[27]; Homo sapiens, COLO 205, 48 h, read-out: LC50",24.8 µM
